Measured values taken from the supplement of paper PMC10307832.

How the values were obtained:
Test in all cases: relative viability (nuclei count vs DMSO), 5 days (fraction); higher = more cells survive
A-427 = system: A-427
In short: (§1)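 Lung cancer cell lines in 1536-well plates got either a single drug or a fixed anchor-drug dose together with five library-drug doses (not always all listed) in √10 steps, by pin tool, on the day after seeding. Nuclei were counted after 5 days, and relative viability is the treated-to-vehicle ratio of nuclei counts. Values are medians of duplicate plates.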

ABC-1 = system: ABC-1
In short: as §1

H3255 = system: H3255
In short: as §1

NCI-H1355 = system: NCI-H1355
In short: as §1

NCI-H1437 = system: NCI-H1437
In short: as §1

NCI-H1651 = system: NCI-H1651
In short: as §1

NCI-H1666 = system: NCI-H1666
In short: as §1

NCI-H1792 = system: NCI-H1792
In short: as §1

NCI-H1793 = system: NCI-H1793
In short: as §1

NCI-H2009 = system: NCI-H2009
In short: as §1

NCI-H2023 = system: NCI-H2023
In short: as §1

NCI-H2087 = system: NCI-H2087
In short: as §1

NCI-H23 = system: NCI-H23
In short: as §1

NCI-H358 = system: NCI-H358
In short: as §1

NCI-H522 = system: NCI-H522
In short: as §1

NCI-H596 = system: NCI-H596
In short: as §1

NCI-H727 = system: NCI-H727
In short: as §1

NCI-H838 = system: NCI-H838
In short: as §1

PC-14 = system: PC-14
In short: as §1

SK-MES-1 = system: SK-MES-1
In short: as §1

SW 1573 = system: SW 1573
In short: as §1

UMC-11 = system: UMC-11
In short: as §1

In the case of `Oc1nc(-c2ccc(C(F)(F)F)cc2)nc2c1CSCC2` [XAV939] + Nc1ncn([C@H]2C[C@H](O)[C@@H](CO)O2)c(=O)n1 [Decitabine] (partner 2 µM), the relative viability (A-427; first compound 0.08 µM) is reported as 0.627, the relative viability (A-427; first compound 0.253 µM) is reported as 0.606 and the relative viability (A-427; first compound 0.8 µM) is reported as 0.527. It also gave a relative viability (A-427; first compound 2.53 µM) of 0.518, a relative viability (ABC-1; first compound 0.253 µM) of 1.27 and a relative viability (ABC-1; first compound 0.8 µM) of 0.975. For the same molecule, the relative viability (ABC-1; first compound 2.53 µM) was 0.655, the relative viability (H3255; first compound 0.08 µM) was 0.637 and the relative viability (H3255; first compound 0.253 µM) was 0.56. It also gave a relative viability (H3255; first compound 0.8 µM) of 0.576, a relative viability (H3255; first compound 2.53 µM) of 0.386 and a relative viability (NCI-H1355; first compound 0.08 µM) of 0.357. It also gave a relative viability (NCI-H1355; first compound 0.253 µM) of 0.309, a relative viability (NCI-H1355; first compound 0.8 µM) of 0.393 and a relative viability (NCI-H1355; first compound 2.53 µM) of 0.298. For the same molecule, the relative viability (NCI-H1437; first compound 0.08 µM) was 0.626, the relative viability (NCI-H1437; first compound 0.253 µM) was 0.478 and the relative viability (NCI-H1437; first compound 0.8 µM) was 0.539. It also gave a relative viability (NCI-H1437; first compound 2.53 µM) of 0.431, a relative viability (NCI-H1651; first compound 0.08 µM) of 0.606 and a relative viability (NCI-H1651; first compound 0.253 µM) of 0.399. The relative viability (NCI-H1651; first compound 0.8 µM) was 0.625, the relative viability (NCI-H1651; first compound 2.53 µM) was 0.426 and the relative viability (NCI-H1666; first compound 0.08 µM) was 0.747. The relative viability (NCI-H1666; first compound 0.253 µM) was 0.674, the relative viability (NCI-H1666; first compound 0.8 µM) was 0.678 and the relative viability (NCI-H1666; first compound 2.53 µM) was 0.531. For the same molecule, the relative viability (NCI-H1792; first compound 0.08 µM) was 0.604, the relative viability (NCI-H1792; first compound 0.253 µM) was 0.485 and the relative viability (NCI-H1792; first compound 0.8 µM) was 0.503. The relative viability (NCI-H1792; first compound 2.53 µM) was 0.42, the relative viability (NCI-H1793; first compound 0.08 µM) was 0.506 and the relative viability (NCI-H1793; first compound 0.253 µM) was 0.403. For the same molecule, the relative viability (NCI-H1793; first compound 0.8 µM) was 0.549, the relative viability (NCI-H1793; first compound 2.53 µM) was 0.416 and the relative viability (NCI-H2009; first compound 0.08 µM) was 0.515. For the same molecule, the relative viability (NCI-H2009; first compound 0.253 µM) was 0.359, the relative viability (NCI-H2009; first compound 0.8 µM) was 0.405 and the relative viability (NCI-H2009; first compound 2.53 µM) was 0.336. It also gave a relative viability (NCI-H2023; first compound 0.08 µM) of 0.207, a relative viability (NCI-H2023; first compound 0.253 µM) of 0.232 and a relative viability (NCI-H2023; first compound 0.8 µM) of 0.212. The relative viability (NCI-H2023; first compound 2.53 µM) was 0.228, the relative viability (NCI-H2087; first compound 0.08 µM) was 0.28 and the relative viability (NCI-H2087; first compound 0.253 µM) was 0.297. It also gave a relative viability (NCI-H2087; first compound 0.8 µM) of 0.302, a relative viability (NCI-H2087; first compound 2.53 µM) of 0.243 and a relative viability (NCI-H23; first compound 0.08 µM) of 0.312. The relative viability (NCI-H23; first compound 0.8 µM) was 0.32, the relative viability (NCI-H23; first compound 2.53 µM) was 0.273 and the relative viability (NCI-H358; first compound 0.08 µM) was 0.219. It also gave a relative viability (NCI-H358; first compound 0.253 µM) of 0.207, a relative viability (NCI-H358; first compound 0.8 µM) of 0.235 and a relative viability (NCI-H358; first compound 2.53 µM) of 0.215. For the same molecule, the relative viability (NCI-H522; first compound 0.08 µM) was 0.629, the relative viability (NCI-H522; first compound 0.253 µM) was 0.576 and the relative viability (NCI-H522; first compound 0.8 µM) was 0.723. The relative viability (NCI-H522; first compound 2.53 µM) was 0.607, the relative viability (NCI-H596; first compound 0.08 µM) was 1 and the relative viability (NCI-H596; first compound 0.253 µM) was 0.976. The relative viability (NCI-H596; first compound 0.8 µM) was 1.03, the relative viability (NCI-H596; first compound 2.53 µM) was 0.928 and the relative viability (NCI-H727; first compound 0.08 µM) was 0.805. For the same molecule, the relative viability (NCI-H727; first compound 0.8 µM) was 0.934, the relative viability (NCI-H727; first compound 2.53 µM) was 0.653 and the relative viability (NCI-H838; first compound 0.08 µM) was 0.488. For the same molecule, the relative viability (NCI-H838; first compound 0.253 µM) was 0.442, the relative viability (NCI-H838; first compound 0.8 µM) was 0.458 and the relative viability (NCI-H838; first compound 2.53 µM) was 0.384. For the same molecule, the relative viability (PC-14; first compound 0.08 µM) was 0.203, the relative viability (PC-14; first compound 0.253 µM) was 0.224 and the relative viability (PC-14; first compound 0.8 µM) was 0.165. The relative viability (PC-14; first compound 2.53 µM) was 0.18, the relative viability (SK-MES-1; first compound 0.08 µM) was 0.359 and the relative viability (SK-MES-1; first compound 0.253 µM) was 0.342. The relative viability (SK-MES-1; first compound 0.8 µM) was 0.358, the relative viability (SK-MES-1; first compound 2.53 µM) was 0.381 and the relative viability (SW 1573; first compound 0.08 µM) was 0.559. It also gave a relative viability (SW 1573; first compound 0.253 µM) of 0.436, a relative viability (SW 1573; first compound 0.8 µM) of 0.437 and a relative viability (SW 1573; first compound 2.53 µM) of 0.453. For the same molecule, the relative viability (UMC-11; first compound 0.08 µM) was 0.633, the relative viability (UMC-11; first compound 0.253 µM) was 0.616 and the relative viability (UMC-11; first compound 0.8 µM) was 0.467. It also gave a relative viability (UMC-11; first compound 2.53 µM) of 0.26.
